This is an account of results in PMC6614837 (Nucleic Acids Research, 2019).

Values joined by “and” are separate entries in the source; they are usually repeats but may differ in a detail not shown here. Equal entries are not always repeated.

Experiment [1] deals with 3'-biotinylated minihelix (Mh; pMini3bpUG) (RNA, hairpin) GAUCUGAAUGCGGAAACGCGCCAC
As to the kind of experiment: biolayer interferometry. The following applies: Mg2+ 10 mM, NH4+ 100 mM (ammonium acetate); 20 mM HEPES pH 7.4, DMSO, 30°C; compound 15.6-500 µM.

The target in experiment [2] is T1, RNase P holoenzyme from Thermotoga maritima (Thermotoga maritima, UniProt Q9X1H4).
T1 construct: made in house
T1 sequence (Q9X1H4 1-117): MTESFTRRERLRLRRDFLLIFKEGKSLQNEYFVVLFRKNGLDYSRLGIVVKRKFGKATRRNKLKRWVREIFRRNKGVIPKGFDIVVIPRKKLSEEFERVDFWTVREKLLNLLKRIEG
Briefly: Real-time fluorescence-based (FRET) RNase P activity assay with minihelix (Mh) substrate. The experiment is classed as biochemical. The following applies: fluorescent Mh substrate 270 nM, holoenzyme 33 nM, 10% DMSO, 37°C, 400 mM AmOAc, 100 mM MgCl2. The protocol:
(§1) The reconstitution of the RNase P holoenzyme was performed as described in ([40],[19]). This protocol produces a homogeneous and functional ribozyme that can be crystallized by mixing P RNA and P protein in a 1:1.1 molar ratio in 1× TH buffer (33 mM Tris–HCl, 66 mM HEPES, pH 7.4) and 400 mM ammonium acetate (AmOAc). The mixture was heated to 95°C for 2 min in a water bath, then chilled on ice for 2 min, after which MgCl2 was added to a final concentration of 100 mM. […] This higher concentration was used in all experiments described herein. The holoenzyme was further incubated at 50°C for 10 min and 37°C for 40 min. The final concentration of holoenzyme was 333 nM (35.6 μg/ml of P RNA and 4.7 μg/ml of P protein).
The minihelix (Mh) substrate (Figure 1A) was adopted from a previously characterized RNase P substrate, pMini3bpUG ([32],[33]) and coupled to either Black Hole Quencher 1 (BHQ1) or Black Hole Quencher 2 (BHQ2) at the 5′-end and Alexa Fluor 488 at the 3′-end. This probe was purchased either from Sigma-Aldrich or Integrated DNA Technologies (IDT). A requested scale of […] yielded between 6.3 and 20 nmol (57.5 to 181 μg, enough for 1300–4000 reactions depending on the experimental substrate concentration). Before use, the minihelix was diluted from a 100 μM stock (dissolved in water) to 3.6 μM in activity buffer H (33 mM Tris–HCl, 66 mM HEPES, pH 7.4, 400 mM AmOAc and 100 mM MgCl2).
(§2) Reactions were performed in a total volume of 20 μl. Pipetting was done by hand using multichannel pipettes. First, an 18 μl reaction mixture containing 16.5 μl of activity buffer (H for Mh or L supplemented with 10% PEG 200 for bipartite pre-tRNA) and 270 nM (Mh) or 135 nM (bipartite pre-tRNA) (1.5 or 0.7 μl of the 3.6 μM stock) of the fluorescent substrate probe was pre-incubated on ice for at least 5 m in a black polystyrene 384-well microtiter microplate with a flat transparent bottom (Corning ref 3540). The holoenzyme was then added at a final concentration of 33 nM (2 μl of a 333 nM stock) in 1× TH buffer and mixed. Kinetic activity was monitored in a Synergy MX Multimode Detector (BioTek) at 37°C with rapid agitation. At least 20 readings were taken per well every 15 s. The probe was excited at 485 nm, and its emission was monitored at 535 nm with an integration time of 1 s. From the plots of relative fluorescent units (RFU) versus time, linear regression was used to determine the slopes in the linear portion of the curves, using at least 12 data points to obtain initial velocities. Non-linear fitting to obtain the Michaelis–Menten parameters was performed using GraphPad Prism® 6.01 software.
Supplementary Figure 3. FRET assays of RNase P with the fluorescent substrate are reproducible. (A) Representative plots of kinetic assays performed in a single run. The standard assay (SA), (+), was performed at 37° C in a total volume of 20 µL and contained RNase P holoenzyme at 33 nM, substrate minihelix (Mh) at 270 nM, 10% DMSO and activity buffer (AB).
The negative control assay (-) contained 100 mM CaCl2 in place of MgCl2. Ten to twelve wells were monitored simultaneously in a typical assay. (B) Zoomed view of the linear region of the kinetic assays shown in panel A. Fluorescence readings were performed every 15-20 seconds.
Linear regression calculations were done using the GraphPad Prism 7 software. (C) The coefficient Z’-factor (1) was used as an indicator of reproducibility and was calculated based on the relative fluorescence units (RFU) in the plateau phase (taken at 20 minutes). The Z’-factor has a […]
presented in this work were either measured in triplicate or confirmed in subsequent assays. (D) […]
assay is robust. The IC50 values reported in Figures 1C and 2 were calculated according to this kinetic parameter. There is a negative drift in fluorescence in the case of the negative control.
However, it should be noted that the mean value of it (-279) is much smaller than the signal of the […]
positive control (3397). […]

Experiment [3] deals with T1, RNase P holoenzyme from Thermotoga maritima. Briefly: Real-time fluorescence-based RNase P activity assay with bipartite pre-tRNA substrate. The following applies: fluorescent bipartite pre-tRNA substrate, holoenzyme 33 nM, 10% PEG 200 in place of DMSO. The class given is biochemical. Here is the method:
as §1
The bipartite pre-tRNA substrate derived from pre-tRNA^Phe from T. maritima (Supplementary Figure S13) was designed for the ease of chemical synthesis and conceived from the fact that the anticodon loop is not required for RNase P recognition (Reiter et al.). As for the Mh substrate, fluorescent bipartite pre-tRNA was coupled to Black Hole Quencher 1 (BHQ1) at the 5′-end of the 5′ oligo, and to Alexa Fluor 488 at the 3′-end of the 3′ oligo (see Supplementary Table S1). The probes were purchased from Integrated DNA Technologies (IDT). A requested scale of 250 nmol yielded 27.4 nmol (0.36 mg) for the 5′ oligo and 3.8 nmol (50 μg) for the 3′ fluorescent oligo. Before use, the probes were diluted from a 100 μM stock (dissolved in water) and assembled by mixing and heating to 3.6 μM in activity buffer L (Tris–HCl pH 7.4 33 mM, HEPES 66 mM, 100 mM AmOAc and 10 mM MgCl2).
as §2, with “software. […]” for “software.”

The target of the next experiment is minihelix (Mh). Briefly: Biolayer interferometry binding to biotinylated minihelix substrate. The following applies: BLI. Here is the method:
3′-Biotinylated minihelix was purchased from Integrated DNA Technologies (IDT) (24-mer RNA sequence, 5′-[…]-3′-Biotin). The biotinylated minihelix was immobilized on Super Streptavidin (SSA) biosensors at a concentration of 10 μM. […] For the titration experiments, 10 μM of 3′-biotinylated minihelix was immobilized for 300 s on Super Streptavidin (SSA) biosensors, followed by a wash step of 100 s and association and dissociation steps of 200 s in the presence of 6 different concentrations of compound ranging from 500 to 15.6 μM. SSA biosensors with no minihelix were used to measure non-specific binding of compounds. All other parameters (buffer, instrument control, analysis) are as described above.
Supplementary Figure 16. Binding assays monitor the interaction of compounds with the minihelix (Mh). Gentian violet and methylene blue bind in a dose-dependent relationship to the artificial minihelix substrate. […]
interaction between the minihelix and (A) gentian violet (KD=8 µM ) and (B) methylene blue A 3′-biotinylated substrate minihelix at 10 µ M was immobilized on super streptavidin (SSA) biosensors for 300 s.
Supplementary Figure 17. pre-tRNA displaces bound purpurin in a dose-response […]
indicating a true competition between purpurin and pre-tRNA binding sites. […]

The target in the next experiment is T2, P protein (Thermotoga maritima, UniProt Q9X1H4).
T2 construct: GST (cleaved yes); made in house; host or cells: E. coli BL21(DE3)pLysS
T2 sequence (Q9X1H4 1-117): T1 sequence (Q9X1H4 1-117)
Briefly: Binding hindrance of the 5′ RNA leader to the P protein (BLI). Set-up: species or system T. maritima. As to conditions: compound 100 μM, 5′ RNA leader 5 μM. The protocol:
A 5′ RNA leader sequence with 10-bases 5′-GGAAAAAGAU-3′ was purchased from IDT and used at a concentration of 5 μM. This sequence is the same used to obtain the crystal structure of the RNase P holoenzyme ([19]). The His-tagged P protein was immobilized on Ni-NTA biosensors at 0.05 mg/ml (3.4 μM). […] The steps performed on the assay and their periods were: P protein immobilization (400 s), wash (100 s), baseline […] (1000 rpm), compound association (800 s), compound dissociation (200 s) (500 rpm), baseline (100 s), 5′ leader association (200 s), 5′ leader dissociation (200 s) (1000 rpm). The assay was performed at 30°C. The compounds were used at 100 μM throughout. All assay steps were performed in 20 mM HEPES pH 7.4, 100 mM ammonium acetate, 10 mM MgCl2, 5% DMSO.
5 ′ RNA leader. (A) Experimental design of 5′ RNA leader binding hindrance experiments. Figures B-F are based on the analysis region depicted in panel A, where association and dissociation of the 5′ RNA leader to the P protein (TmP) is measured over time. P protein at 3.5 µM was immobilized on Ni-NTA biosensors for 300 s, while compounds were assayed at 100 µM and the […]
binding, in contrast with hematein (E) and purpurin (F).
(1 picture or pasted object on this page, not shown here)

With `CN(C)c1ccc(C(=C2C=CC(=[N+](C)C)C=C2)c2ccc(N(C)C)cc2)cc1` [Gentian violet, tris(4-(dimethylamino)phenyl)methylium chloride, reference compound], the KD (in general, the equilibrium constant for the complex coming apart) in experiment [1] is 8 µM. For the same molecule, the IC50 (usually the concentration that gives 50% inhibition) in experiment [2] is 7.3 ± 1.6 µM; in experiment [3], 16.2 ± 2.1 µM.

In experiment [1], `CN(C)c1ccc2nc3ccc(=[N+](C)C)cc-3sc2c1` [methylene blue, reference compound] displayed a KD of 35 µM. Also, the Kd (in general, the constant that tells how readily two partners part at equilibrium) on minihelix (Mh) (3′-biotinylated minihelix 10 μM on SSA biosensors) stood at 35 µM. The “Binding to the minihelix substrate” value in the experiment on minihelix (Mh) (initial screening at 1 mM and titration) is listed as “binding signal”. Further, in experiment [2], the IC50 was 110 µM and 109 µM. Also, the “Hindrance of 5′ RNA leader binding to the P protein” value at P protein was “did not interfere with RNA leader”.
